Results on ten compounds are retold here after patent publication US5288757A, “Aminosulfonyl urea ACAT inhibitors and a method of lowering blood cholesterol levels therewith” (priority 1993, dated 1994).

Counter-ions that a name gives are not always drawn. Like-named read-outs stand apart in the source and are kept apart here.

Test [1] addresses T1, acyl-CoA: cholesterol acyltransferase (ACAT) (Oryctolagus cuniculus, UniProt G1SFD9).
T1 construct: in a tissue preparation containing rabbit intestinal microsomes; from tissue; host or cells: rabbit intestinal microsomes
T1 sequence (G1SFD9 1-524): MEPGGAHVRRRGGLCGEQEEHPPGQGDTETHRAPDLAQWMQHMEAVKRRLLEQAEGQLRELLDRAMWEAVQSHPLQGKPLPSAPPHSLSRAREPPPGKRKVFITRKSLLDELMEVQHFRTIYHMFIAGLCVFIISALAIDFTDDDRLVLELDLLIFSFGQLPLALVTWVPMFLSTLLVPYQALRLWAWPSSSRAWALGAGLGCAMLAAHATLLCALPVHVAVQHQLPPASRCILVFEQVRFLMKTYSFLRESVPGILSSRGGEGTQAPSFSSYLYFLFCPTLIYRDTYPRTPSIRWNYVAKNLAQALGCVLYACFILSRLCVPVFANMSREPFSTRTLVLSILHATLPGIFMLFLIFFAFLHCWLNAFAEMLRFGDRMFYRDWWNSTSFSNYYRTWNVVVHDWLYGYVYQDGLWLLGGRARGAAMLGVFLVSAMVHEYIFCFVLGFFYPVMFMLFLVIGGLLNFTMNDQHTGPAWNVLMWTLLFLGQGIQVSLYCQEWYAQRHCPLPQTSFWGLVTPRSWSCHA
The test can be described thus: in vitro inhibition of ACAT (IAI), radiolabeled cholesterol oleate formation in rabbit intestinal microsomes. The class given is biochemical. As for the experimental part:
The ability of representative compounds of the present invention to inhibit ACAT was measured using an in vitro test more fully described in F. J. Field and R. G. Salone, Biochemica et Biophysica 712:557-570 (1982). The test assesses the ability of a test compound to inhibit the acylation of cholesterol by oleic acid by measuring the amount of radiolabeled cholesterol oleate formed from radiolabeled oleic acid in a tissue preparation containing rabbit intestinal microsomes.

Another test deals with Plasma TC. Put plainly: in vivo screen designated APCC, plasma total cholesterol in rats on high fat, high cholesterol diet. As to conditions: read-out: % Change in Plasma TC Values (mg/dl). Further details: species or system male Sprague-Dawley rats. The text has this: In one in vivo screen designated APCC, male Sprague-Dawley rats (200 to 225 g) were randomly divided into treatment groups and dosed at 4 PM with either vehicle (CMC/Tween) or suspensions of compounds in vehicle. The normal chow diet was then replaced with a high fat, high cholesterol diet with 0.5% cholic acid. The rats consumed this diet ad libitum during the night and were sacrificed at 8 AM to obtain blood samples for cholesterol analysis using standard procedures. Statistical differences between mean cholesterol values for the same vehicle were determined using analysis of variance followed by Fisher's least significant test. Compounds were dosed at 30 mg/kg unless otherwise noted.

[2] abbreviates: dosed at 30 mg/kg, rat, high fat, high cholesterol diet with 0.5% cholic acid.

`CC(C)c1cccc(C(C)C)c1NC(=O)NS(=O)(=O)N(C(C)C)C(C)C` [Example 28, N-[2,6-bis(1-methylethyl)phenyl]-N'-[(diisopropylamino)sulfonyl]urea] gave an IC50 in test [1] of 1.1 µM. In addition, the change in vivo at 30 mg/kg in the test on Plasma TC (setting [2]) was -60%. As for `CCCCN(CC)S(=O)(=O)NC(=O)Nc1c(C(C)C)cccc1C(C)C` [Example 34, N-[2,6-bis(1-methylethyl)phenyl]-N'-[(butylethylamino)sulfonyl]urea], the change in vivo at 30 mg/kg in the test with Plasma TC (setting [2]) was -70%. Consider `CC(C)c1cccc(C(C)C)c1NC(=O)NS(=O)(=O)N(C(C)C)C(C)(C)C` [Example 35, N-[2,6-bis(1-methylethyl)phenyl]-N'-[[(1,1-dimethylethyl)(1-methylethyl)amino]sulfonyl]urea], for which the change in vivo at 30 mg/kg in the test on Plasma TC (setting [2]) is -71%. On the same count and under the same terms, under `CCC(C)N(C(C)CC)S(=O)(=O)NC(=O)Nc1c(C(C)C)cccc1C(C)C` (stereo not drawn) [Example 36, N-[2,6-bis(1-methylethyl)phenyl]-N'-[[bis(1-methylpropyl)amino]sulfonyl]urea] stands -71%; under `CCCCCCCCCCCCCCN(C)S(=O)(=O)NC(=O)Nc1c(C(C)C)cccc1C(C)C` [Example 37, N-[2,6-bis(l-methylethyl)phenyl]-N'-[(methyltetradecylamino)sulfonyl]urea], -65%. Regarding `CC(C)c1cccc(C(C)C)c1NC(=O)NS(=O)(=O)N1CCCC1` [Example 38, Urea, N-[2,6-bis(1-methylethyl)phenyl]-N'-(1-pyrrolidinylsulfonyl)], the change in vivo at 30 mg/kg with Plasma TC (setting [2]) was -49%. For `CC(C)c1cccc(C(C)C)c1NC(=O)NS(=O)(=O)N1CCCCC1` [Example 39, Urea, N-[2,6 bis(1-methylethyl)phenyl]-N'-(1-piperidinylsulfonyl)], the change in vivo at 30 mg/kg in the test with Plasma TC (setting [2]) is -13%. As to `CC(C)c1cccc(C(C)C)c1NS(=O)(=O)NC(=O)N(Cc1ccccc1)Cc1ccccc1` [Example 42, N,-[[[2,6-bis(1-methylethyl)phenyl]amino]sulfonyl]-N,N-bis(phenylmethyl) urea], the change in vivo at 30 mg/kg in the test on Plasma TC (setting [2]) is -44%.

In the case of `CCCCN(CCCC)S(=O)(=O)NC(=O)Nc1c(C(C)C)cccc1C(C)C` [Example 43, N-[2,6-bis(1-methylethyl)phenyl]-N'-[(dibutylamino)sulfonyl]urea, monosodium salt], the change in vivo at 30 mg/kg in the test on Plasma TC (Rattus norvegicus) was -68%. In the case of `CCCCN(CCCC)S(=O)(=O)N(C)C(=O)Nc1c(C(C)C)cccc1C(C)C` [Example 44], the IC50 in test [1] (rabbit intestinal microsomes, read-out: IAI IC50) was more than 5 µM. Besides, in the test on Plasma TC (setting [2]), the change in vivo at 30 mg/kg is -8%.

For orientation: IC50 means the concentration that gives 50% inhibition.
